Results on three compounds are retold here after publication PMC4685510, “A Cell Biologist’s Field Guide to Aurora Kinase Inhibitors” (Frontiers in Oncology, 2015).

The structures appear in SMILES notation.

Holding throughout (experiment): biochemical
Type in all cases: biochemical

Test [1] concerns the target 363 human kinases (including Aurora A/B/C) (Homo sapiens, UniProt O00311). To be noted: CDC7/DBF4, [ATP] 15 µM; for remaining activity at 0.5 µM / remaining activity at 0.1 µM: read-out: % Enzyme Activity (relative to DMSO controls); for remaining activity at 0.1 µM: 100 nM.
From the text: (§1) However, the Aurora A/B selectivity ratios derived from our in vitro and in vivo data can be compared to prioritize inhibitors.
Test [2] deals with 363 human kinases (including Aurora A/B/C) (Homo sapiens, UniProt P42685). The conditions noted are these: FRK/PTK5; for remaining activity at 0.5 µM / remaining activity at 0.1 µM: read-out: % Enzyme Activity (relative to DMSO controls); for remaining activity at 0.1 µM: 100 nM.
From the text: as §1
The target in test [3] is 363 human kinases (including Aurora A/B/C) (Homo sapiens, UniProt P45983). The conditions noted are these: JNK1; for remaining activity at 0.5 µM / remaining activity at 0.1 µM: read-out: % Enzyme Activity (relative to DMSO controls); for remaining activity at 0.1 µM: 100 nM.
From the text: as §1
For test [4], the target named is 363 human kinases (including Aurora A/B/C) (Homo sapiens, UniProt Q04912). The conditions noted are these: RON/MST1R; for remaining activity at 0.5 µM / remaining activity at 0.1 µM: read-out: % Enzyme Activity (relative to DMSO controls); for remaining activity at 0.1 µM: 100 nM.
From the text: as §1
Test [5] has as its target T1, 363 human kinases (including Aurora A/B/C) (Homo sapiens, UniProt Q12866).
T1 sequence (Q12866 21-999): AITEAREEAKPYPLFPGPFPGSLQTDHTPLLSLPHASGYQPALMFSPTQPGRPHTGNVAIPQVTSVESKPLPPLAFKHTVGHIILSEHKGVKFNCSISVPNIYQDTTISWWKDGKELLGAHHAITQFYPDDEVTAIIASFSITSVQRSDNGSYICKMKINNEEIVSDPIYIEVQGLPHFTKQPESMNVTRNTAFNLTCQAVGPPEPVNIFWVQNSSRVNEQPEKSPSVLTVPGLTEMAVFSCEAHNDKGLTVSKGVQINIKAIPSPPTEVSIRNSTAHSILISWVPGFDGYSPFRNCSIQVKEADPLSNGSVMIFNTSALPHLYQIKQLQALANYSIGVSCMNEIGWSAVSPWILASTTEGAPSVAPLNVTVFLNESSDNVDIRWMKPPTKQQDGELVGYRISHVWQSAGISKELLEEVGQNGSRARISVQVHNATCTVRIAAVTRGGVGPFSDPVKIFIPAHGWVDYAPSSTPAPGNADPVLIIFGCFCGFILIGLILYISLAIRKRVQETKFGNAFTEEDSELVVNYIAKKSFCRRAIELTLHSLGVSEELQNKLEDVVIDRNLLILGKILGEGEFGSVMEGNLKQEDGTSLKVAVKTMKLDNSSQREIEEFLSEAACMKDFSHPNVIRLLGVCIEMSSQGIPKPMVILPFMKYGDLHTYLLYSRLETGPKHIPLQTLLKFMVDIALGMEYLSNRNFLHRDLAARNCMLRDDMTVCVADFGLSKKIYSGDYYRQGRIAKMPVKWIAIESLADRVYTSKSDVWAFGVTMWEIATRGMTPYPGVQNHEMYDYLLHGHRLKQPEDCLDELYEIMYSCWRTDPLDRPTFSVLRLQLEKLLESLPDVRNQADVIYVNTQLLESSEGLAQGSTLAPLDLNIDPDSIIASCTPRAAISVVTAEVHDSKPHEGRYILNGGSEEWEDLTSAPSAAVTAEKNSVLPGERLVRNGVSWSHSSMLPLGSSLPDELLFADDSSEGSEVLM
To be noted: c-MER, [ATP] 30 µM; for remaining activity at 0.5 µM / remaining activity at 0.1 µM: read-out: % Enzyme Activity (relative to DMSO controls); for remaining activity at 0.1 µM: 100 nM.
From the text: as §1

Test [6] addresses T2, 363 human kinases (including Aurora A/B/C) (Homo sapiens, UniProt Q15835).
T2 sequence (Q15835 1-563): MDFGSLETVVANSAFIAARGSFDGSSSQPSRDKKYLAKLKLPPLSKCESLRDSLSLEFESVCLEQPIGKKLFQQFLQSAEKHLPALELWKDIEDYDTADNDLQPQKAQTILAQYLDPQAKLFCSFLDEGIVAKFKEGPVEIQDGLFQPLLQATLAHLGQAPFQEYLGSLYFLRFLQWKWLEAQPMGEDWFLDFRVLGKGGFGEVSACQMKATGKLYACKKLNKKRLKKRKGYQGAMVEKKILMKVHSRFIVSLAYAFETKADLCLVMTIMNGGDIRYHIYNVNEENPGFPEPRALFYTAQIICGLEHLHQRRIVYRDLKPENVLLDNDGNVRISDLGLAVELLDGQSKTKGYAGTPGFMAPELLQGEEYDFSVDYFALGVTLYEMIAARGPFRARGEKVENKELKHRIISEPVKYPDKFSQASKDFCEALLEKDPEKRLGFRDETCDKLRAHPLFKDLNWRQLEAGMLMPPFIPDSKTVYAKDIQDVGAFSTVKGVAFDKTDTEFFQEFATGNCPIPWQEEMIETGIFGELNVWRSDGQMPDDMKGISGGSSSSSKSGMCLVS
The conditions noted are these: GRK1; for remaining activity at 0.5 µM / remaining activity at 0.1 µM: read-out: % Enzyme Activity (relative to DMSO controls); for remaining activity at 0.1 µM: 100 nM.
From the text: as §1

The target in test [7] is T3, 363 human kinases (including Aurora A/B/C) (Homo sapiens, UniProt Q86SG6).
T3 sequence (Q86SG6 1-692): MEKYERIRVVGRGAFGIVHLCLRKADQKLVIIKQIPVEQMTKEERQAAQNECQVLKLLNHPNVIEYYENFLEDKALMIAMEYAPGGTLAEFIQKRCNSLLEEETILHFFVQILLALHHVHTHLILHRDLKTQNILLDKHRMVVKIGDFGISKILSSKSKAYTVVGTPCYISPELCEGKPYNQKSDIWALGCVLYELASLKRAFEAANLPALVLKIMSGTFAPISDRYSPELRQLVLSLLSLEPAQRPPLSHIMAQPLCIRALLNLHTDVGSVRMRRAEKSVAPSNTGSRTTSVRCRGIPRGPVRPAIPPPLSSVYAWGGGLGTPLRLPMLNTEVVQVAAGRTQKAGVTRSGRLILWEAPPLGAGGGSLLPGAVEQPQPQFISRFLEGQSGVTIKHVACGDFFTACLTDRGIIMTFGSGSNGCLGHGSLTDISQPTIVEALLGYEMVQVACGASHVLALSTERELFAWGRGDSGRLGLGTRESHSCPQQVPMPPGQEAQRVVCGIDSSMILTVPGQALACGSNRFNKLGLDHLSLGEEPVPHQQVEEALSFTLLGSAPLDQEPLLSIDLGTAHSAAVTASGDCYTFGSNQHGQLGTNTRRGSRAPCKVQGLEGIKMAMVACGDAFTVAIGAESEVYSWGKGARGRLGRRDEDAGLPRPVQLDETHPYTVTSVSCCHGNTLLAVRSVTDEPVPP
To be noted: NEK8; for remaining activity at 0.5 µM / remaining activity at 0.1 µM: read-out: % Enzyme Activity (relative to DMSO controls); for remaining activity at 0.1 µM: 100 nM.
From the text: as §1

In test [8] the target is 363 human kinases (including Aurora A/B/C) (Homo sapiens, UniProt Q9H4B4). The conditions noted are these: PLK3; for remaining activity at 0.5 µM / remaining activity at 0.1 µM: read-out: % Enzyme Activity (relative to DMSO controls); for remaining activity at 0.1 µM: 100 nM.
From the text: as §1
Test [9] concerns the target 363 human kinases (including Aurora A/B/C) (Homo sapiens, UniProt Q9NY57). To be noted: STK32B/YANK2; for remaining activity at 0.5 µM / remaining activity at 0.1 µM: read-out: % Enzyme Activity (relative to DMSO controls); for remaining activity at 0.1 µM: 100 nM.
From the text: as §1

Sequence of 363 human kinases (including Aurora A/B/C) (Homo sapiens, UniProt P42685) (P42685 whole entry): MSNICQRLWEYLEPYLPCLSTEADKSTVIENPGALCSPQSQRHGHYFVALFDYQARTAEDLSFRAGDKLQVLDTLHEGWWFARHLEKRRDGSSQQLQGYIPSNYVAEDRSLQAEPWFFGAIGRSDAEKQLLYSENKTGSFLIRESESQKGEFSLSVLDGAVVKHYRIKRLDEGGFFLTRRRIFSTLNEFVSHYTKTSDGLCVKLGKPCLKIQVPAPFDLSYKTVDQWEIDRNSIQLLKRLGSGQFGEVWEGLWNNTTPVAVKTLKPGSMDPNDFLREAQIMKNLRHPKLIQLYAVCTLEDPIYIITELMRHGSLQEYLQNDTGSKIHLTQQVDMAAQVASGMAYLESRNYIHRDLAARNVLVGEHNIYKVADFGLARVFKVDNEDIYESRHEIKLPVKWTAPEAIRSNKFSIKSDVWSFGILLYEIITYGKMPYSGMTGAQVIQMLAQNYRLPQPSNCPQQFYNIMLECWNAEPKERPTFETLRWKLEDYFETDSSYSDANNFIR
Sequence of 363 human kinases (including Aurora A/B/C) (Homo sapiens, UniProt Q9H4B4) (Q9H4B4 whole entry): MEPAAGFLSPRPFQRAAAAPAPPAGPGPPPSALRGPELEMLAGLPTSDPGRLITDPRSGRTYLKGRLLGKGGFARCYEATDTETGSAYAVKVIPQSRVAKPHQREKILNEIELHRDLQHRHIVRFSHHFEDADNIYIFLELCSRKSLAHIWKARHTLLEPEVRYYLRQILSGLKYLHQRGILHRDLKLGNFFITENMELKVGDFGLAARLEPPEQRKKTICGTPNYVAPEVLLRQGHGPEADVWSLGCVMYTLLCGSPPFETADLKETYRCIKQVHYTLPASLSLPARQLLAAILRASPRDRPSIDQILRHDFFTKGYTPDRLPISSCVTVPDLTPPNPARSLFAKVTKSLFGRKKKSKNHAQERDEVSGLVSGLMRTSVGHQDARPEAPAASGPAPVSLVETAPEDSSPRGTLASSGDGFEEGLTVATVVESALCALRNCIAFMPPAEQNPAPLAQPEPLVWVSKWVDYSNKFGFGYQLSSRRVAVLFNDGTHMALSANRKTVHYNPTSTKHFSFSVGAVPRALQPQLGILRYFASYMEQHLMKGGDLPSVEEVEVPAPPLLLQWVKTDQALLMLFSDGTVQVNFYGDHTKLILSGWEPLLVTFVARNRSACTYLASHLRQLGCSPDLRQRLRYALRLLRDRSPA
Sequence of 363 human kinases (including Aurora A/B/C) (Homo sapiens, UniProt Q9NY57) (Q9NY57 whole entry): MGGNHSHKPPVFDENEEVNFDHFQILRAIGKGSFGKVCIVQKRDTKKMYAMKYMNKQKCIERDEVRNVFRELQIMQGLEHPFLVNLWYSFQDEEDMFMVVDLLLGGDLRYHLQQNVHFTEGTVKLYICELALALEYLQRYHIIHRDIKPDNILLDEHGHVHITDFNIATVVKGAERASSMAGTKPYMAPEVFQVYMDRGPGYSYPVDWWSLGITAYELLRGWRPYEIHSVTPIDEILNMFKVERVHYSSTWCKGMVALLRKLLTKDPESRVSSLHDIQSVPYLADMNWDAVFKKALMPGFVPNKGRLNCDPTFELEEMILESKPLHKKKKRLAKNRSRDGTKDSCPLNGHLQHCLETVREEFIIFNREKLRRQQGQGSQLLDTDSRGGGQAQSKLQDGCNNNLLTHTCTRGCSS
Sequence of 363 human kinases (including Aurora A/B/C) (Homo sapiens, UniProt Q04912) (Q04912 25-1400): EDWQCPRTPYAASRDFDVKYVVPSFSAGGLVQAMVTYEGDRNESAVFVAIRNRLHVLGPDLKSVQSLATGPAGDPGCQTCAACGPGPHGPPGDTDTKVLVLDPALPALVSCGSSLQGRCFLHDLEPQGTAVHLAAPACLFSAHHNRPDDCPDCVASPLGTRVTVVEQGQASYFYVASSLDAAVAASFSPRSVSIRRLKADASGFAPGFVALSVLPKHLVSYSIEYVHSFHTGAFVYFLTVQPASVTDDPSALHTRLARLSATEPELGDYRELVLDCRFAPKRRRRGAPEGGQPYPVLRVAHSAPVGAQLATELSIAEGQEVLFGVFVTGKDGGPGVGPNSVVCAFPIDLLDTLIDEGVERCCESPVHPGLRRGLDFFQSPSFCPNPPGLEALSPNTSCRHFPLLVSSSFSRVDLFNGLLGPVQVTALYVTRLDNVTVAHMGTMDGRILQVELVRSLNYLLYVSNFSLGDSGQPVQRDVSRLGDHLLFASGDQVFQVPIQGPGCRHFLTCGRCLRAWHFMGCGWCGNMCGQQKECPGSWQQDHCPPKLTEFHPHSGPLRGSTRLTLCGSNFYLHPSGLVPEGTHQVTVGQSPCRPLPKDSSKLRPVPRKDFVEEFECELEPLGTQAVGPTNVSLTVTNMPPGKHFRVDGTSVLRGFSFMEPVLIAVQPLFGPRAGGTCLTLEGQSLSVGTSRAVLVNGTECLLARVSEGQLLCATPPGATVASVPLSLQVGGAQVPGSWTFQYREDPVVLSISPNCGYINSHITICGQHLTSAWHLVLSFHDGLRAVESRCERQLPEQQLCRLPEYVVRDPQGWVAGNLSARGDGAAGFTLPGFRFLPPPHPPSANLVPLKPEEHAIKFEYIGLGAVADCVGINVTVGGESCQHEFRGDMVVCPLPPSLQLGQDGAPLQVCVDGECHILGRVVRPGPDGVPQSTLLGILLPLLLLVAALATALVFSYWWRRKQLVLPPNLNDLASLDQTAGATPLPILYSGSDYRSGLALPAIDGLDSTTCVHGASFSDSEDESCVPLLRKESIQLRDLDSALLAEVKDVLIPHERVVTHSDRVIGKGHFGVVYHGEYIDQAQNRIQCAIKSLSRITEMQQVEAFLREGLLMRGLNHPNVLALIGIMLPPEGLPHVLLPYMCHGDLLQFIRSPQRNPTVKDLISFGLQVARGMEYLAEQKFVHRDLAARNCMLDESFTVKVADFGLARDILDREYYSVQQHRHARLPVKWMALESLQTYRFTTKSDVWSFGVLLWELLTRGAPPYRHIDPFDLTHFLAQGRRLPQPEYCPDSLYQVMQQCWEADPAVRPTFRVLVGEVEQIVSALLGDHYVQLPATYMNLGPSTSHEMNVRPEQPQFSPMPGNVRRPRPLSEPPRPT
Sequence of 363 human kinases (including Aurora A/B/C) (Homo sapiens, UniProt P45983) (P45983 whole entry): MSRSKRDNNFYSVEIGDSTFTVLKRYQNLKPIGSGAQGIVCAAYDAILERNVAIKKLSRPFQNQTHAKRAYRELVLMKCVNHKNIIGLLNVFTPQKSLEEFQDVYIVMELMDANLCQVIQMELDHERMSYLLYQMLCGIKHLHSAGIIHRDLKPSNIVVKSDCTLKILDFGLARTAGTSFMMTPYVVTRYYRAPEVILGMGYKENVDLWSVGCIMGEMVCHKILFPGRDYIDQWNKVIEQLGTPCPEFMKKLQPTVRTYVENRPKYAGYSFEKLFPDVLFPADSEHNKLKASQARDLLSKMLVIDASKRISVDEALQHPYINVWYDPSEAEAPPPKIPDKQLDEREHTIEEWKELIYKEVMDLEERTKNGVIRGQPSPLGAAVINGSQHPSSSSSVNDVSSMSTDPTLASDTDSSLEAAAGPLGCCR
Sequence of 363 human kinases (including Aurora A/B/C) (Homo sapiens, UniProt O00311) (O00311 whole entry): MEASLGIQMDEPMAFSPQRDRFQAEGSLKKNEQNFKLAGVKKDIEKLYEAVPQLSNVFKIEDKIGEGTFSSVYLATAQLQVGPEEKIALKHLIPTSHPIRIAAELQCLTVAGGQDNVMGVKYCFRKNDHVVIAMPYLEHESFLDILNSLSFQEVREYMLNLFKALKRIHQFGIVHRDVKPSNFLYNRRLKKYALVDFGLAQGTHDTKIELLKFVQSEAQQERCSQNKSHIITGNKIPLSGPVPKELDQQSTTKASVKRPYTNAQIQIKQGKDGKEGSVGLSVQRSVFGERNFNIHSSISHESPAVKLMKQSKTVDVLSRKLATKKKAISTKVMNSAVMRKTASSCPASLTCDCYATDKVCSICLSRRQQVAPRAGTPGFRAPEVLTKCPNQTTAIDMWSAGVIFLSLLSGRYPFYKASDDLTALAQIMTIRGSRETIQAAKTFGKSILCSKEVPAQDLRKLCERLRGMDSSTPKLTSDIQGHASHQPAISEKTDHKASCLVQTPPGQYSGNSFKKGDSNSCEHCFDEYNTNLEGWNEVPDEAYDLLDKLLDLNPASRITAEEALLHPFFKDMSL

`O=C(c1cccc(Cl)c1F)N1CCN(Cc2cccc(Nc3nccs3)n2)CC1` [MK-8745]: the “% Enzyme Activity (relative to DMSO controls)” value in [1] (500 nM) was determined as 101.19%; in test [2] (500 nM), 94.09%; in test [3] (500 nM), 13.45%; in test [4] (500 nM), 94.45%; in test [5] (500 nM), 41.19%; in test [6] (500 nM) it was 98.09%. The figures for the “% Enzyme Activity (relative to DMSO controls)” value in test [7] (500 nM), in [8] (500 nM) and in test [9] (500 nM) were 91.43%, 99.37% and 95.67%, respectively. In addition, the remaining activity at 0.5 µM in test [1] (500 nM) came to 103%; in test [2] (500 nM), 98.1%; in test [3] (500 nM), 13.8%; in [4] (500 nM), 96.3%; in test [5] (500 nM), 41.6%; in test [6] (500 nM), 101%. The remaining activity at 0.5 µM in [7] (500 nM) was found to be 91.6%; in test [8] (500 nM) it was 102%; in test [9] (500 nM), 97.9%.
Take `CCn1cc(-c2ccnc3[nH]c(-c4cccc(CN(C)C)c4)cc23)c(-c2ccc(NC(=O)N(C)C)cc2)n1` [GSK1070916]: the remaining activity at 0.1 µM was 95.4% in [1]; 99.9% in test [2]; 98% in [3]; 93.8% in test [4]; 81.6% in [5]; 95.1% in test [6]. Moreover, the remaining activity at 0.1 µM was 97.8% in [7], 101% in [8] and 93.6% in [9].
For `O=C(O)[C@]1(Cc2cccc(Nc3nccs3)n2)CC[C@@H](Oc2cccc(Cl)c2F)CC1` [MK-5108], the remaining activity at 0.1 µM turned out to be 103% in test [1]; 41% in [2]; 61.8% in test [3]; 101% in test [4]; 78.7% in test [5]; 99% in test [6]. In addition, the remaining activity at 0.1 µM in test [7] is 81.2%; in test [8] it was 103%; in test [9], 95.8%. The remaining activity at 0.5 µM in test [1] (500 nM) came to 96.2%; in test [2] (500 nM) it was 19.8%; in test [3] (500 nM), 29.3%; in test [4] (500 nM) it was 94.1%; in test [5] (500 nM), 46.1%; in test [6] (500 nM) it was 106%. The remaining activity at 0.5 µM in test [7] (500 nM) came out at 82.2%; in test [8] (500 nM), 104%; in [9] (500 nM) it was 95.7%.
